# Test results taken from patent publication US20170296498A1, “Rapid Relief of Motor Fluctuations in Parkinson's Disease” (Civitas Therapeutics, Inc., priority 2014, published 2017).
# Test system: Parkinson's disease patients in the OFF state
# Assay: Phase 2 study of pulmonary levodopa in PD patients: plasma levodopa concentration vs UPDRS
# Format: in vivo, human
# Conditions: FIG. 8, plasma concentration vs UPDRS
# Protocol: The twenty four PD (24) patients treated in this study underwent serial evaluations of L-dopa plasma levels, motor response, and safety at each visit. The patients were administered the study drug in the OFF state with the serial evaluations starting prior to dosing and continuing for up to 180 minutes post-dose. Motor function was measured using a tapping test, the Unified Parkinson's Disease Rating Scale Part III (UPDRS III), and subjective evaluation of “meaningful” ON and OFF. Safety parameters monitored included pulmonary function, clinical laboratory data, EGCs, and vital signs (blood pressure, heart rate, and orthostatic blood pressure). This study was designed to measure the time, magnitude, and durability of pulmonary levodopa's effect on motor function, to evaluate the safety and tolerability of pulmonary levodopa in Parkinson's disease patients.
# In FIG. 8, patient's plasma levodopa concentrations are being compared to UPDRS scores. UPDRS is a standard test for Parkinson's disease patients to test their response to drug treatment and their disease progression. […] The different baseline levels of levodopa plasma relate to the fact that each patient has a different effective dose or effective concentration for the levodopa to have an effect on each patient. […]
structure (smiles),measurement,value
"N[C@@H](Cc1ccc(O)c(O)c1)C(=O)O [L-Dopa, levodopa]",levodopa plasma concentration difference between being in the off state and in the on state,200 to 400 ng/mL
